By IC50 is commonly meant the point on the concentration scale where inhibition reaches its midpoint. A higher IC50 goes with weaker potency in that assay.

For 8 compounds, IC50 results are on record in patent US5204462A, “4H-3,1-benzoxazin-4-one derivative” (Japan Tobacco, Inc., priority 1990, dated 1993).

Type in all cases: biochemical
In assay [1] the target is T1, human leukocyte elastase (HLE) (Homo sapiens, UniProt P08246).
T1 construct: HLE was purified according to the method described by A. J. Barrett; from tissue; host or cells: purified from natural human material by Barrett's method (Methods in Enzymology 80, 581-588, 1981)
T1 sequence (P08246 30-247 limits assumed): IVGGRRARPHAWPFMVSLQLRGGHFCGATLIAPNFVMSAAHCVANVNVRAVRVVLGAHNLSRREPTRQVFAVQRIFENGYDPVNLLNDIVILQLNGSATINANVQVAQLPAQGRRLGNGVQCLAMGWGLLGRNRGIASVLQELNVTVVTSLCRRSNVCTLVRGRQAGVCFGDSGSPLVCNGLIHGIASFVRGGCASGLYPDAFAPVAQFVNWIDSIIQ
In words: Test 1: Measurement of inhibitory activity against HLE. The conditions noted are these: MeO-Suc-Ala-Ala-Pro-Val-pNA substrate, pH 8.6, 37° C., 10 min after mixing enzyme and inhibitor, steady state rate. The protocol: (§1) In order to investigate the serine protease inhibiting activity of the 4H-3,1-benzoxazin-4-one derivatives according to the present invention, human leukocyte elastase (HLE), bovine α-chymotrypsin (CYT), and human cathepsin G (HCG) were used in accordance with the following methods.
(§2) Note that the 4H-3,1-benzoxazin-4-one derivative of the present invention was dissolved in dimethylsulfoxide (DMSO) to adjust to the concentration to 1 mg/ml. This solution was serially diluted with DMSO, and twice the volume of measurement buffer was added to these DMSO solutions to provide the inhibitor solution. Test 1: Measurement of inhibitory activity against HLE
0.2M tris-hydrochloride buffer (pH=8.6)
HLE was purified according to the method described by A. J. Barrett ("Methods in Enzymology", Vol. 80, pp. 581 to 588, 1981) and adjusted to a concentration of 190 nM with measurement buffer. This solution was used as the enzyme solution.
Methoxysuccinyl-L-alanyl-L-alanyl-L-prolyl-L-valyl-paranitroanilide (Funakoshi Co. Ltd., Tokyo, Japan) as enzyme substrate was dissolved and adjusted to a concentration of 5 mM with DMSO. This DMSO solution was diluted with twice the volume of measurement buffer, and then used as the substrate solution.
(§3) The enzyme solution, the substrate solution, and the inhibitor solution were pre-incubated at 37° C. for 10 minutes. The enzyme solution (140 μl) and the inhibitor solution (30 μl) were mixed in a well of a 96-well microtiter plate (Nunc Co. Ltd., Roskilde, Denmark), and the substrate solutions (30 μl) were added 10 minutes after the mixing, thereby starting the enzyme reaction. Hydrolysis of the substrate was monitored by the measurement of absorbance at 405 nm using a micro plate photometer (Corona Co. Ltd, Tokyo, Japan). The inhibitor concentration at which the activity of HLE was inhibited by 50% (IC50) was calculated from the substrate hydrolysis rate in the steady state.

Assay [2] has as its target T2, bovine α-chymotrypsin (CYT) (Bos taurus, UniProt P00766).
T2 construct: purchased Sigma Co. Ltd., St. Louise, MO
Nature of the assay: Test 2: Measurement of inhibitory activity against CYT. The conditions noted are these: MeO-Suc-Ala-Ala-Pro-Phe-pNA substrate, pH 8.0, same procedures as Test 1. The protocol: as §1, §2, §3
Test 2: Measurement of inhibitory activity against CYT.
0.2M tris-hydrochloride buffer (pH=8.0)
CYT (Sigma Co. Ltd., St. Louise, MO) was adjusted to a concentration of 190 nM with the measurement buffer. This solution was used as the enzyme solution.
Methoxysuccinyl-L-alanyl-L-alanyl-L-prolyl-L-phenylalanyl-paranitroanilide (Funakoshi) as the enzyme substrate was dissolved and adjusted to a concentration of 5 mM with DMSO. This DMSO solution was diluted with twice the volume of measurement buffer, and then used as the substrate solution.
IC50 against CYT was determined in the same procedures detailed in Test 1.

The target in a further assay is T3, human cathepsin G (HCG) (Homo sapiens, UniProt P08311).
T3 construct: purchased Cosmo Bio Co. Ltd., Tokyo, Japan
T3 sequence (P08311 21-244 limits assumed): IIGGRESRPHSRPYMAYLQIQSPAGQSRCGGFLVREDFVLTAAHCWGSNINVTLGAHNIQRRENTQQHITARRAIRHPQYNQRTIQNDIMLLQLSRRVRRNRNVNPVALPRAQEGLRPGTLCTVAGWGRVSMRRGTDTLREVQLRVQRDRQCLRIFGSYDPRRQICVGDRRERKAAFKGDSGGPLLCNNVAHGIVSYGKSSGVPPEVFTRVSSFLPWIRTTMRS
Nature of the assay: Test 3: Measurement of inhibitory activity against HCG. The note with it: MeO-Suc-Ala-Ala-Pro-Phe-pNA substrate, pH 7.5, same procedure as Test 1. The protocol: as §1, §2, §3
Test 3: Measurement of inhibitory activity against HCG.
0.2M tris-hydrochloride buffer (pH=7.5)
HCG (Cosmo Bio Co. Ltd., Tokyo, Japan) was adjusted to a concentration of 190 nM with the measurement buffer. This solution was used as the enzyme solution.
Methoxysuccinyl-L-alanyl-L-alanyl-L-prolyl-L-phenylalanyl-paranitroanilide (Funakoshi) as the enzyme substrate was dissolved and adjusted to a concentration of […] with DMSO. This DMSO solution was diluted with twice the volume of the measurement buffer, and then used as the substrate solution.
IC50 against HCG was determined in the same procedure detailed in Test 1.

SMILES strings stand for the structures.

In the case of `Cc1cccc2nc([C@@H](NC(=O)[C@@H]3CCCN3C(=O)OCc3ccccc3)C(C)C)oc(=O)c12` [Example 1, (1'S)-2-[1'-(N-benzyloxycarbonyl-L-prolyl)amino-2'-methyl]propyl-5-methyl-4H-3,1-benzoxazin-4-one], the IC50 in assay [1] is 0.28 µM; in assay [2], 2.89 µM; on human cathepsin G (HCG), > 50 µM.

For `Cc1cccc2nc([C@@H](NC(=O)[C@@H]3CCCN3C(=O)OC(C)(C)C)C(C)C)oc(=O)c12` [Example 2, (1'S)-2-[1'-(N-tert-butyloxycarbonyl-L-prolyl)amino-2'-methyl]propyl-5-methyl-4H-3,1-benzoxazin-4-one], the IC50 amounted to 2.72 µM in assay [1], 18.3 µM in assay [2] and 26.5 µM against human cathepsin G (HCG).

On to `Cc1cccc2nc([C@@H](NC(=O)[C@@H]3CCCN3C(=O)/C=C/c3ccccc3)C(C)C)oc(=O)c12` [Example 3, (1'S)-2-[1'-(N-cinnamoyl-L-prolyl)amino-2'-methyl]propyl-5-methyl-4H-3,1-benzoxazin-4-one], for which the IC50 in assay [1] is 1.31 µM; in assay [2], 15.6 µM; against human cathepsin G (HCG), > 200 µM.

With `Cc1cccc2nc([C@@H](NC(=O)[C@@H]3CCCN3C(=O)CCc3ccccc3)C(C)C)oc(=O)c12` [Example 4, (1'S)-5-methyl-2-{2'-methyl-1'-[N-(3-phenylpropionyl)-L-prolyl]amino}propyl-4H-3,1-benzoxazin-4-one], the IC50 in assay [1] is 0.52 µM; in assay [2], 8.69 µM; at human cathepsin G (HCG) it was > 200 µM.

Turning to `CCCCCC(=O)N1CCC[C@H]1C(=O)N[C@H](c1nc2cccc(C)c2c(=O)o1)C(C)C` [Example 5, (1'S)-2-[1'-(N-hexanoyl-L-prolyl)amino-2'-methyl]propyl-5-methyl-4H-3,1-benzoxazin-4-one], the results for the IC50 (in assay [1]; in assay [2]; at human cathepsin G (HCG)) were 1.22 µM, 11.3 µM and > 140 µM, respectively.

`COC(=O)CCC(=O)N[C@@H](C)C(=O)N[C@@H](C)C(=O)N1CCC[C@H]1C(=O)N[C@H](c1nc2cccc(C)c2c(=O)o1)C(C)C` [Example 6, (1'S)-2-[1'-(methoxysuccinyl-L-alanyl-L-alanyl-L-prolyl)amino-2'-methyl]propyl-5-methyl-4H-3,1-benzoxazin-4-one]: the IC50 in assay [1] came out at 2.98 µM; in assay [2] it was 22.1 µM; on human cathepsin G (HCG), 15 µM.

For `CSCC[C@H](NC(=O)[C@@H]1CCCN1C(=O)OCc1ccccc1)c1nc2cccc(C)c2c(=O)o1` [Example 10, (1'S)-2-[1'-(N-benzyloxycarbonyl-L-prolyl)amino-3'-(methylthio)]propyl-5-methyl-4H-3,1-benzoxazin-4-one], the IC50 in assay [1] is 0.99 µM; in assay [2], 4.51 µM; against human cathepsin G (HCG), > 50 µM.

For the compound `Cc1cccc2nc([C@@H](NC(=O)[C@@H]3C[C@@H](O)CN3C(=O)OCc3ccccc3)C(C)C)oc(=O)c12` [Example 12, (1'S)-2-[1'-(N-benzyloxycarbonyl-trans-4-hydroxy-L-prolyl)amino-2'-methyl]propyl-5-methyl-4H-3,1-benzoxazin-4-one], the figures for the IC50 (in assay [1]; in assay [2]; at human cathepsin G (HCG)) were 1.15 µM, 10.7 µM and > 200 µM, respectively.
